In publication PMC12372887, “Mechanism and cellular actions of the potent AMPK inhibitor BAY-3827” (Science Advances, 2025):

What was measured:
ULK1 = molecular target: T1, ULK1 (Homo sapiens, UniProt O75385); test: Cell-free ULK1 kinase assay (S108tide); format: biochemical; details: increasing concentrations, 0 to 1 μM
T1 sequence (O75385 1-1050): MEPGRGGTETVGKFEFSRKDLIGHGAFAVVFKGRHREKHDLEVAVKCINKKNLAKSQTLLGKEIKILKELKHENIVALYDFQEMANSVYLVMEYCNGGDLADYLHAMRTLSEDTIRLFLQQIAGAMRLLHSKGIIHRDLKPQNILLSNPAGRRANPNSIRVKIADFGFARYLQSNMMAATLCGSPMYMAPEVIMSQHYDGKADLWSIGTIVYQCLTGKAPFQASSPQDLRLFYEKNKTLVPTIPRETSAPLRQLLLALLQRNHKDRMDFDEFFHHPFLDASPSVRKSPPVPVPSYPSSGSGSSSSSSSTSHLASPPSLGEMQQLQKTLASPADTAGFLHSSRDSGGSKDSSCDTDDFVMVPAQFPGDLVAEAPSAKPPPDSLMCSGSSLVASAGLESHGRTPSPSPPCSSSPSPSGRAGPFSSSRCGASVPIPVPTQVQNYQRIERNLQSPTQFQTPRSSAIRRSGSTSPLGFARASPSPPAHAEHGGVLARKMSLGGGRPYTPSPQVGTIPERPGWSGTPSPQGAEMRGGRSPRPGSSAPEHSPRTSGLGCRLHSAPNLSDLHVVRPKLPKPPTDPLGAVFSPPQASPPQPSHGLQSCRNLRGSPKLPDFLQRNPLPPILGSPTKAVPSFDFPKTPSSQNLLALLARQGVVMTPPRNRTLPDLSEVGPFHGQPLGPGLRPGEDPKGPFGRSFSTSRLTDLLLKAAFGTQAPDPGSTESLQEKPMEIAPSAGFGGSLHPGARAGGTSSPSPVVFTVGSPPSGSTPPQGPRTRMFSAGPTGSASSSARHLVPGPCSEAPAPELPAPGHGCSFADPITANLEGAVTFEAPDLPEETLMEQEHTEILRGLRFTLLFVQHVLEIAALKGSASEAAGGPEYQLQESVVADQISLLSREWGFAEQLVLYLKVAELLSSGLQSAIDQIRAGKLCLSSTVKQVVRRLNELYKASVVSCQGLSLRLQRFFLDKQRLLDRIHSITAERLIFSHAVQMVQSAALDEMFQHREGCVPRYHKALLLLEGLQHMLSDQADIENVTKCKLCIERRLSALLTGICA
Protocol: (§1) Heterotrimeric human AMPK FLAG- α1β1γ1, FLAG- α2β1γ1, and FLAG- α2β2γ1, as well as human FLAG-CaMKK2 and FLAG-ULK1, were produced in mammalian HEK293 cells as described ([66], [67]). For AMPK expression, the cells were triply transfected at 60% confluency using FuGene HD (Roche Applied Science) and 1 μg of pcDNA3 plasmid expression constructs for AMPK Flag-α1, β1-Myc, β2-Myc, and HA-γ1. For CaMKK2 expression, the cells were transfected with 1 μg of pcDNA3 Flag-CaMKK2 plasmid. For ULK1 expression, the cells were transfected with […] of pcDNA3 FLAG-ULK1 plasmid. After 48 hours, the transfected cells were harvested by rinsing with ice-cold PBS, followed by rapid lysis using 500 μl of lysis buffer. AMPK, CaMKK2, and ULK1 kinase activities were determined by phosphorylation of synthetic peptide substrates: SAMS (HMRSAMSGLHLVKRR), CaMKKtide ([…]), and S108tide. (KLPLTRSHNNFVARRR), respectively. Briefly, recombinant AMPK, CaMKK2, or ULK1 were immunoprecipitated from 10 μg of transfected cultured cell lysate using 10 μl of anti-FLAG M2 agarose beads [50% (v/v)] […] Radioactivity was quantified by liquid scintillation counting. […]

CaMKK2 = molecular target: T2, CaMKK2 (Homo sapiens, UniProt Q96RR4); test: Cell-free CaMKK2 kinase assay (CaMKKtide); format: biochemical; details: increasing concentrations, 0 to 1 μM
T2 construct: made in house; host or cells: HEK293 (transient transfection, anti-FLAG immunoprecipitate)
T2 sequence (Q96RR4 whole entry): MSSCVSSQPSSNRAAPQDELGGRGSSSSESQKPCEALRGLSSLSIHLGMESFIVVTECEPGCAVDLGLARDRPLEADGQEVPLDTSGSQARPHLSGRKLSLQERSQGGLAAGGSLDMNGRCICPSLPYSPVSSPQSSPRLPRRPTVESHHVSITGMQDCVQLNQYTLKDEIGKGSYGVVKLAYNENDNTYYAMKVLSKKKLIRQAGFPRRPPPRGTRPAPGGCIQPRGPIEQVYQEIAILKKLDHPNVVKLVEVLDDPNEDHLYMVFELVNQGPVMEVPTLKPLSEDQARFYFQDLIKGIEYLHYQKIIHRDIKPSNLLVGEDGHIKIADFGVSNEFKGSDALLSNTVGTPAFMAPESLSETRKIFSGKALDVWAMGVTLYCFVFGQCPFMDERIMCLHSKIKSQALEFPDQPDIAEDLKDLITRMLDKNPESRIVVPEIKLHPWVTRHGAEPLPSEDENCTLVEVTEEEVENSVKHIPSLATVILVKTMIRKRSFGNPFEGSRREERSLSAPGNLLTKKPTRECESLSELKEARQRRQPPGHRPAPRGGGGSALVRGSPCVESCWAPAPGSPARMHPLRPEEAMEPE
Protocol: as §1

SMILES	inhibitory effect on kinase activity (ULK1)	inhibitory effect on kinase activity (CaMKK2)
CC1=C(C#N)C(c2ccc3c(c2)c(NC(=O)c2ccccc2C)nn3C)C(C#N)=C(C)N1 [BAY-974, N-[5-(3,5-dicyano-2,6-dimethyl-1,4-dihydropyridin-4-yl)-1-methylindazol-3-yl]-2-methylbenzamide]	no inhibitory effect	no inhibitory effect
CCc1ccccc1C(=O)Nc1n[nH]c2c(C)c(F)c(C3C(C#N)=C(C)N(C)C(C)=C3C#N)cc12 [BAY-3827, N-[5-(3,5-dicyano-1,2,6-trimethyl-4H-pyridin-4-yl)-6-fluoro-7-methyl-1H-indazol-3-yl]-2-ethylbenzamide]	no inhibitory effect	no inhibitory effect
